From patent EP4467141A1, “PYRAZOLO-QUINOLINES AS SELECTIVE INHIBITORS OF GENOTOXIC STRESS-INDUCED IKK/NF- KB PATHWAYS FOR CANCER THERAPY” (Max-Delbrück-Centrum für Molekulare Medizin in der …, priority 2023, dated 2024)
Where two headings read alike, the source gives them in different places.

Key:
MAP4K2 (GCK) = biological target: T1, MAP4K2 (GCK) (Homo sapiens, UniProt Q12851); assay: Kinase panel study; assay type: biochemical; conditions: for inhibition at 1 µM: 1000nM
T1 construct: purchased Thermo Fisher Scientific
T1 sequence (Q12851 1-820): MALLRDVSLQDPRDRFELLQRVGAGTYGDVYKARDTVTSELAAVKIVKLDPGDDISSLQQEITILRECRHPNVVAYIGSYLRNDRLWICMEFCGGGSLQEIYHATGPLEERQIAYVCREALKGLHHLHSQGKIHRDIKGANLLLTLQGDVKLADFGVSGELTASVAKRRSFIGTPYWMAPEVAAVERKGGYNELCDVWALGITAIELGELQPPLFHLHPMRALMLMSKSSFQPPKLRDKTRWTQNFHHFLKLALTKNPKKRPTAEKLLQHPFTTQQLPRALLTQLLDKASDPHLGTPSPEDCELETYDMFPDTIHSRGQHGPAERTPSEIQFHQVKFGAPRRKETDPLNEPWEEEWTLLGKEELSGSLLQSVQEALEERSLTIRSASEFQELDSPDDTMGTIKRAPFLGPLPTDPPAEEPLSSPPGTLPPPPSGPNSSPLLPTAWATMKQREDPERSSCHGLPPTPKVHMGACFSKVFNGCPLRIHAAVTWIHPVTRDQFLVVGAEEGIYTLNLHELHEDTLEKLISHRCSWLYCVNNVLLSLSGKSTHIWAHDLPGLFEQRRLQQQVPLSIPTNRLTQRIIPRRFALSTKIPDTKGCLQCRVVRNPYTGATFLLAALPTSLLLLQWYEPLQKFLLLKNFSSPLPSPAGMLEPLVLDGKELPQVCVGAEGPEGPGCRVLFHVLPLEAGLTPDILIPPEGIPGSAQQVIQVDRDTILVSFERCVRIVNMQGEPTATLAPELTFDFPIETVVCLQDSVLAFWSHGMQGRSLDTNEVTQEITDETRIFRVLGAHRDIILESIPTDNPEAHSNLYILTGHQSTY
In short: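 A commercial kinase profiling service ran the assays according to its ZLyte or Adapta standard protocols. Compound was present at 10 µM or 1 µM, and kinase activity loss was expressed as percent inhibition.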

PIK3C2G (PI3K-C2 gamma) = biological target: T2, PIK3C2G (PI3K-C2 gamma) (Homo sapiens, UniProt O75747); assay: Kinase panel study; assay type: biochemical; conditions: for inhibition at 1 µM: 1000nM; for IC50: in vitro kinase panel, criterion of at most 2000 nM
T2 construct: purchased Thermo Fisher Scientific
T2 sequence (O75747 1-1486): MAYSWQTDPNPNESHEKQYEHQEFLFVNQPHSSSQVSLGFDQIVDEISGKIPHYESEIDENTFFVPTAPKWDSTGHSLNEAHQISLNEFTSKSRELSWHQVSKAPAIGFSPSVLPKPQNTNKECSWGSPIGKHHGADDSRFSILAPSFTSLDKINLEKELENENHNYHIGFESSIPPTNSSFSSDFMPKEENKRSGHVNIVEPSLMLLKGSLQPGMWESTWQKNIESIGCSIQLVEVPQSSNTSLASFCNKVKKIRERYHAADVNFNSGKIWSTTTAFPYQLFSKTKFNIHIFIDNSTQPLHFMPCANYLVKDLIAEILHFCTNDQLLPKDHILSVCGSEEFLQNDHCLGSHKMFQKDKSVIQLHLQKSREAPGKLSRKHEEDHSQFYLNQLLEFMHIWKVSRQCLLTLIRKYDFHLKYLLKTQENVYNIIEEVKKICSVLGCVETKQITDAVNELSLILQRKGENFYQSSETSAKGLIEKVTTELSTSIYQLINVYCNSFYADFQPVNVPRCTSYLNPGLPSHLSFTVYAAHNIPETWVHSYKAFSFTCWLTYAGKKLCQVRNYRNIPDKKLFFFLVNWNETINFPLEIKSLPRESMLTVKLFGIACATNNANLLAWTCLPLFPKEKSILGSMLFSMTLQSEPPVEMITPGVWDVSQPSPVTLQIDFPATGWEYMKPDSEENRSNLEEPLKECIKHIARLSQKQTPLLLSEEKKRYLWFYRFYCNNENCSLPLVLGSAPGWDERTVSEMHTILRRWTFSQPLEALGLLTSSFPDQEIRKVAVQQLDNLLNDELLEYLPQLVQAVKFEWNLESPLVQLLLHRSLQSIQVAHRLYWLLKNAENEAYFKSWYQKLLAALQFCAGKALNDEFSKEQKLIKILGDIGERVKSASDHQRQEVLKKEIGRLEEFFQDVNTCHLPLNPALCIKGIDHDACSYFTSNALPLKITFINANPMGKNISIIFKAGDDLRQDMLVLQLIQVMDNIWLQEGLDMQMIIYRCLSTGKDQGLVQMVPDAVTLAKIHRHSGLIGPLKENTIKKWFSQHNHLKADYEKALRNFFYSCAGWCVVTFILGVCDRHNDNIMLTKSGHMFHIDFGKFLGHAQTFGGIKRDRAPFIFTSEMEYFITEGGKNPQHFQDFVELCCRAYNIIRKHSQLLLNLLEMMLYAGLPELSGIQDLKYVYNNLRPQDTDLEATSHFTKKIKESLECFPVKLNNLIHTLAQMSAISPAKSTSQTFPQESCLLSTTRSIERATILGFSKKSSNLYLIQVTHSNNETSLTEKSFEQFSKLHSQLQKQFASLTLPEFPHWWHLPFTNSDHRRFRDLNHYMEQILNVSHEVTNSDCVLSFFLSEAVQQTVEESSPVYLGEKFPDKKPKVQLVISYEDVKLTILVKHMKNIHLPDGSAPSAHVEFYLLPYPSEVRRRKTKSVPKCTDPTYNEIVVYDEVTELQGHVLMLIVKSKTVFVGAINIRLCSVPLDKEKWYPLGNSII
In short: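 ZLyte/Adapta biochemical kinase assays, standard operating procedures; % inhibition at 1 µM or 10 µM test compound; IC50 determined in panel.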

[1] = read-out: Percentage of inhibition
[2] = 10000nM, read-out: Percentage of inhibition
[3] = MAP4K2 (GCK), compound at 10µM, read-out: % of Inhibition
[4] = PIK3C2G (PI3K-C2 gamma), compound at 10µM, read-out: % of Inhibition

inhibition at 10 µM (MAP4K2 (GCK); [3]) [%] | inhibition at 10 µM (PIK3C2G (PI3K-C2 gamma); [4]) [%] | SMILES | inhibition at 1 µM (MAP4K2 (GCK); [1]) [%] | inhibition at 10 µM (MAP4K2 (GCK); [2]) [%] | inhibition at 1 µM (PIK3C2G (PI3K-C2 gamma); [1]) [%] | inhibition at 10 µM (PIK3C2G (PI3K-C2 gamma); [2]) [%] | IC50 (PIK3C2G (PI3K-C2 gamma)) [nM]
 |  | COc1ccc2cc3c(N)nn(C(=O)c4cccc(N(C)C)c4)c3nc2c1 [MW05, (3-Amino-7-methoxypyrazolo[3,4-b]quinolin-1-yl)-[3-(dimethylamino)phenyl]methanone] | 13 | 10 | 56 | 87 | ≤ 2000
93 | 81 | O=c1c2cnccc2c2nccc3c4cc(O)ccc4n1c32 [MW01-E18, 5-hydroxy-1,11,16-triazapentacyclo[10.7.1.0^2,^7.0^8,^20.0^13,^18]icosa-2(7),3,5,8(20),9,11,13(18),14,16-nonaen-19-one] |  |  |  |  | 
98 | 81 | O=c1c2cc(O)ccc2c2nccc3c4cc(O)ccc4n1c32 [MW01-E10, 5,16-dihydroxy-1,11-diazapentacyclo[10.7.1.0^2,^7.0^8,^20.0^13,^18]icosa-2(7),3,5,8(20),9,11,13(18),14,16-nonaen-19-one] |  |  |  |  | 
81 | 50 | COc1ccc2c(c1)c1ccnc3c4ccnc(OC)c4c(=O)n2c13 [MW01-E14, 5,17-dimethoxy-1,11,16-triazapentacyclo[10.7.1.0^2,^7.0^8,^20.0^13,^18]icosa-2(7),3,5,8(20),9,11,13(18),14,16-nonaen-19-one] |  |  |  |  | 
 |  | COc1ccc2c(c1OC)c(=O)n1c3ccc(O)cc3c3ccnc2c31 [MW01, 5-Hydroxy-10,11-dimethoxy-9H-benzo[c]indolo[3,2,1-ij][1,5]naphthyridin-9-one] | 50 | 77 | 92 | 94 | ≤ 2000
70 | 35 | COc1ccc2c(c1)c1ccnc3c4nc(OC)ccc4c(=O)n2c13 [MW01-E6, 5,15-dimethoxy-1,11,14-triazapentacyclo[10.7.1,0^2,7.0^8,^20.0^13,^18]icosa-2(7),3,5,8(20),9,11,13(18),14,16-nonaen-19-one] |  |  |  |  | 
2 | 27 | COc1ccc2nc3c(cc2c1)c(N)nn3C(=O)c1cccc(N(C)C)c1 [MW05-E2, 1-[3-(dimethylamino)benzoyl]-6-methoxy-1H-pyrazolo[3,4-b]quinolin-3-amine] |  |  |  |  | 
